Converted amounts (≈) assume the structure as drawn.
Tested on: Pasteurella multocida
Assay: minimum inhibitory concentration (MIC)
Protocol: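 Broth microdilution MIC (Sensititre BOPO7F bovine plate, CLSI methods) of 19 antimicrobials against field isolates of P. multocida, M. haemolytica, H. somni (deep nasopharyngeal swabs) and E. coli, Enterococcus spp. (rectal swabs) from weaned dairy heifers. Incubation 16-24 h at 35 C. MIC is the lowest concentration preventing visible growth. Values with <= or > lie at the tested range limits. Trimethoprim-sulfamethoxazole is given as the trimethoprim component of a 1:19 mixture.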

CC1(C)S[C@@H]2[C@H](NC(=O)[C@H](N)c3ccccc3)C(=O)N2[C@H]1C(=O)O [Ampicillin]
Details | minimum inhibitory concentration [µg/mL]
isolate (source animal id): 10 | ≤ 0.25
isolate (source animal id): 11 | ≤ 0.25
isolate (source animal id): 12 | ≤ 0.25
isolate (source animal id): 19 | ≤ 0.25
isolate (source animal id): 23 | ≤ 0.25
isolate (source animal id): 26 | ≤ 0.25
isolate (source animal id): 98 | ≤ 0.25
isolate (source animal id): 104 | ≤ 0.25
isolate (source animal id): 115 | ≤ 0.25
isolate (source animal id): 117 | ≤ 0.25
isolate (source animal id): 118 | ≤ 0.25
isolate (source animal id): 121 | ≤ 0.25
isolate (source animal id): 124 | 0.5 (≈ 1.43 µM)
isolate (source animal id): 125 | ≤ 0.25
isolate (source animal id): 128 | ≤ 0.25
isolate (source animal id): 131 | ≤ 0.25
isolate (source animal id): 135 | ≤ 0.25
isolate (source animal id): 136 | ≤ 0.25
isolate (source animal id): 140 | ≤ 0.25
isolate (source animal id): 144 | ≤ 0.25
isolate (source animal id): 146 | ≤ 0.25
isolate (source animal id): 150 | ≤ 0.25
isolate (source animal id): 151 | ≤ 0.25
isolate (source animal id): 153 | ≤ 0.25
isolate (source animal id): 155 | ≤ 0.25
isolate (source animal id): 157 | ≤ 0.25
isolate (source animal id): 160 | ≤ 0.25
isolate (source animal id): 164 | ≤ 0.25
isolate (source animal id): 165 | ≤ 0.25
isolate (source animal id): 167 | ≤ 0.25
isolate (source animal id): 168 | ≤ 0.25
isolate (source animal id): 169 | ≤ 0.25
isolate (source animal id): 170 | 8 (≈ 22.9 µM)
isolate (source animal id): 171 | ≤ 0.25
isolate (source animal id): 172 | ≤ 0.25
isolate (source animal id): 173 | ≤ 0.25
isolate (source animal id): 174 | ≤ 0.25
isolate (source animal id): 175 | ≤ 0.25
isolate (source animal id): 176 | ≤ 0.25
isolate (source animal id): 177 | ≤ 0.25
isolate (source animal id): 178 | ≤ 0.25
isolate (source animal id): 179 | ≤ 0.25
isolate (source animal id): 182 | ≤ 0.25
isolate (source animal id): 192 | ≤ 0.25
isolate (source animal id): 193 | ≤ 0.25
isolate (source animal id): 195 | ≤ 0.25
isolate (source animal id): 196 | ≤ 0.25
isolate (source animal id): 197 | ≤ 0.25
isolate (source animal id): 198 | ≤ 0.25
isolate (source animal id): 199 | ≤ 0.25
isolate (source animal id): 200 | ≤ 0.25
isolate (source animal id): 201 | ≤ 0.25
isolate (source animal id): 203 | ≤ 0.25
isolate (source animal id): 204 | ≤ 0.25
isolate (source animal id): 205 | ≤ 0.25
isolate (source animal id): 206 | ≤ 0.25
isolate (source animal id): 207 | ≤ 0.25
isolate (source animal id): 208 | ≤ 0.25
isolate (source animal id): 209 | ≤ 0.25
isolate (source animal id): 210 | ≤ 0.25
isolate (source animal id): 213 | ≤ 0.25
isolate (source animal id): 216 | ≤ 0.25
isolate (source animal id): 223 | ≤ 0.25
isolate (source animal id): 227 | ≤ 0.25
isolate (source animal id): 229 | ≤ 0.25
isolate (source animal id): 233 | ≤ 0.25
isolate (source animal id): 234 | ≤ 0.25
isolate (source animal id): 237 | ≤ 0.25
isolate (source animal id): 241 | ≤ 0.25
isolate (source animal id): 245 | ≤ 0.25
isolate (source animal id): 247 | ≤ 0.25
isolate (source animal id): 250 | ≤ 0.25
isolate (source animal id): 254 | ≤ 0.25
isolate (source animal id): 255 | ≤ 0.25
isolate (source animal id): 258 | ≤ 0.25
isolate (source animal id): 261 | ≤ 0.25
isolate (source animal id): 262 | ≤ 0.25
